# ChEMBL document CHEMBL5576074, “[1,2,4]Triazolo[1,5-a]pyrimidine derivatives: Structure-activity relationship study leading to highly selective ENPP1 inhibitors” (Bioorg Med Chem Lett, 2024)
# Biological target: T1, Ectonucleotide pyrophosphatase/phosphodiesterase family member 3 (Homo sapiens, UniProt O14638)
# T1 sequence (O14638 whole entry): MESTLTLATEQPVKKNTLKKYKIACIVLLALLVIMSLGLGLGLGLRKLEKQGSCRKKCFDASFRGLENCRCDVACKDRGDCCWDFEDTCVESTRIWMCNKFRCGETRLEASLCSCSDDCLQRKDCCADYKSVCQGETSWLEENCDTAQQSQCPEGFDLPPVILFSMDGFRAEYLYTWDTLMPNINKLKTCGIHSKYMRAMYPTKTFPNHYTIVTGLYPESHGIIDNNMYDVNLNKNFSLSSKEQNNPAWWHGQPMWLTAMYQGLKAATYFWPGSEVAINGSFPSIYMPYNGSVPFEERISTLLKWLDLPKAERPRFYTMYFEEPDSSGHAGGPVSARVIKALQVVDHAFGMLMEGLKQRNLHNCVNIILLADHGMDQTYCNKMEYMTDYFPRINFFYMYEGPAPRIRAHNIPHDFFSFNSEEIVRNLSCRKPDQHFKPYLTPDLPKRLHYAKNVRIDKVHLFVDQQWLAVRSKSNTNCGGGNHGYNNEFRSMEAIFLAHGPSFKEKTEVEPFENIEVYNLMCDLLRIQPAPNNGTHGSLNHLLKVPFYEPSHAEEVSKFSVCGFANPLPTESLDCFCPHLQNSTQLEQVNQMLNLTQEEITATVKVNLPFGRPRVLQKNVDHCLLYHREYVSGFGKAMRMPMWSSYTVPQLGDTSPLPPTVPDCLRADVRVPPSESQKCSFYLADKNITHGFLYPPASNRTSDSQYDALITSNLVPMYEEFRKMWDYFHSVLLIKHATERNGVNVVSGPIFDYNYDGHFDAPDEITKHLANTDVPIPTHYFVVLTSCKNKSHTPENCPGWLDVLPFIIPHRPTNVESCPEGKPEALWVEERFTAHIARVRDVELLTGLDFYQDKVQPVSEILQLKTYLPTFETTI
# Experiment: Inhibition of ENPP3 (unknown origin) assessed as reduction in 2'3'-cGAMP hydrolysis by AMP-Glo assay
# Conditions: not given
row,SMILES,IC50 [µM]
1,Cc1nc2ncnn2c(N(C)C)c1Cc1cccc(N)c1,> 50

# Biological target: T2, Ectonucleotide pyrophosphatase/phosphodiesterase family member 1 (Homo sapiens, UniProt P22413)
# T2 sequence (P22413 whole entry): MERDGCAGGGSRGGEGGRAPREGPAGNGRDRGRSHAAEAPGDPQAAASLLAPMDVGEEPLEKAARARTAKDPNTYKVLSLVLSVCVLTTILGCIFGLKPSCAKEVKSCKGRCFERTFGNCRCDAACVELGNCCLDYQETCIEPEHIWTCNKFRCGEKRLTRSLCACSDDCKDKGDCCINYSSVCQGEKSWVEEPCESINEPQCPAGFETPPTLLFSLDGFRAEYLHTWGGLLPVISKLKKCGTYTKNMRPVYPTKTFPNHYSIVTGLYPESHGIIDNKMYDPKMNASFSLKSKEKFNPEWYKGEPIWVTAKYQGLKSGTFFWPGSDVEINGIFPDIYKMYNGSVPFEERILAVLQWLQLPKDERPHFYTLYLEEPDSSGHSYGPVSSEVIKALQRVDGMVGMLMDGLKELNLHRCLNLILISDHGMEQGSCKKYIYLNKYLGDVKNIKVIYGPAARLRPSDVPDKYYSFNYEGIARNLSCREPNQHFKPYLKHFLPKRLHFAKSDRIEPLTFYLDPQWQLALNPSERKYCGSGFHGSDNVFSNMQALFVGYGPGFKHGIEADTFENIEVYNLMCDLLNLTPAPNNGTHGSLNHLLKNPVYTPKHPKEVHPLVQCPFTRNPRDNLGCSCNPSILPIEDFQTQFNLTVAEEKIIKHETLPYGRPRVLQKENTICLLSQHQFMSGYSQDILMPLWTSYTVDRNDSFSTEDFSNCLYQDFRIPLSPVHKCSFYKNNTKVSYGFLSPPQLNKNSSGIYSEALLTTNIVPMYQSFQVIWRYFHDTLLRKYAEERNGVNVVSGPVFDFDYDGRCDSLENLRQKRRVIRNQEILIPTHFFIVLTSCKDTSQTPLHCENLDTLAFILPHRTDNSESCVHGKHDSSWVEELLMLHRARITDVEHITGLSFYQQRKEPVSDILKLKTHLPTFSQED
# Experiment: Inhibition of ENPP1 (unknown origin)
# Conditions: not given
row,SMILES,IC50 [µM]
1,Cc1nc2ncnn2c(NCCCCC(=O)O)c1Cc1cccc(N)c1,3.6
2,Cc1nc2ncnn2c(NCCO)c1Cc1ccccc1,> 30
3,Cc1nc2ncnn2c(N(C)C)c1Cc1cccc(N)c1,0.26
4,Cc1nc2ncnn2c(N(C)C)c1CC1CCCCC1,> 30
5,Cc1nc2ncnn2c(O)c1Cc1ccccc1,> 30
6,Cc1cccc(Cc2c(C)nc3ncnn3c2N(C)C)c1,3.1
7,Cc1nc2ncnn2c(N(C)C)c1CCc1ccccc1,23
8,COc1cccc(Cc2c(C)nc3ncnn3c2N(C)C)c1,1.6

# Tested on: THP1-Dual
# Experiment: Cytotoxicity against human THP1-Dual cells upto 50 uM
# Assay type: toxicity, cell-based
# Conditions: not given
row,SMILES,Activity
1,Cc1nc2ncnn2c(N(C)C)c1Cc1cccc(N)c1,Non-Toxic

# Biological target: T3, Ectonucleotide pyrophosphatase/phosphodiesterase family member 3 (Homo sapiens) (UniProt O14638)
# T3 sequence (whole entry): T1 sequence (O14638 whole entry)
# Experiment: Inhibition of ENPP3 (unknown origin) at 50 uM relative to control
# Conditions: not given
row,SMILES,inhibition [%]
1,Cc1nc2ncnn2c(NCCCCC(=O)O)c1Cc1cccc(N)c1,22
2,Cc1nc2ncnn2c(NCCO)c1Cc1ccccc1,4.3
3,Cc1nc2ncnn2c(N(C)C)c1Cc1cccc(N)c1,24
4,Cc1nc2ncnn2c(N(C)C)c1CC1CCCCC1,3.7
5,Cc1nc2ncnn2c(O)c1Cc1ccccc1,2.4
6,Cc1cccc(Cc2c(C)nc3ncnn3c2N(C)C)c1,4.9
7,Cc1nc2ncnn2c(N(C)C)c1CCc1ccccc1,3.6
8,COc1cccc(Cc2c(C)nc3ncnn3c2N(C)C)c1,6.5

# Biological target: T1, Ectonucleotide pyrophosphatase/phosphodiesterase family member 3
# Experiment: Inhibition of ENPP3 (unknown origin) assessed as reduction in ATP hydrolysis by AMP-Glo assay
# Conditions: not given
row,SMILES,IC50 [µM]
1,Cc1nc2ncnn2c(N(C)C)c1Cc1cccc(N)c1,> 50

# Biological target: T3, Ectonucleotide pyrophosphatase/phosphodiesterase family member 3 (Homo sapiens)
# Experiment: Inhibition of ENPP3 (unknown origin) assessed as reduction in ATP hydrolysis at 50 uM by AMP-Glo assay relative to control
# Conditions: not given
row,SMILES,inhibition [%]
1,Cc1nc2ncnn2c(N(C)C)c1Cc1cccc(N)c1,4.2

# Biological target: T1, Ectonucleotide pyrophosphatase/phosphodiesterase family member 3
# Experiment: Inhibition of ENPP3 (unknown origin)
# Conditions: not given
row,SMILES,IC50 [µM]
1,Cc1nc2ncnn2c(NCCCCC(=O)O)c1Cc1cccc(N)c1,> 50
2,Cc1nc2ncnn2c(NCCO)c1Cc1ccccc1,> 50
3,Cc1nc2ncnn2c(N(C)C)c1Cc1cccc(N)c1,> 50
4,Cc1nc2ncnn2c(N(C)C)c1CC1CCCCC1,> 50
5,Cc1nc2ncnn2c(O)c1Cc1ccccc1,> 50
6,Cc1cccc(Cc2c(C)nc3ncnn3c2N(C)C)c1,> 50
7,Cc1nc2ncnn2c(N(C)C)c1CCc1ccccc1,> 50
8,COc1cccc(Cc2c(C)nc3ncnn3c2N(C)C)c1,> 50

# Biological target: T3, Ectonucleotide pyrophosphatase/phosphodiesterase family member 3 (Homo sapiens)
# Experiment: Inhibition of ENPP3 (unknown origin) assessed as reduction in 2'3'-cGAMP hydrolysis at 50 uM by AMP-Glo assay relative to control
# Conditions: not given
row,SMILES,inhibition [%]
1,Cc1nc2ncnn2c(N(C)C)c1Cc1cccc(N)c1,2.2

# Biological target: T4, Glycerophosphocholine cholinephosphodiesterase ENPP6 (Homo sapiens, UniProt Q6UWR7)
# T4 sequence (Q6UWR7 whole entry): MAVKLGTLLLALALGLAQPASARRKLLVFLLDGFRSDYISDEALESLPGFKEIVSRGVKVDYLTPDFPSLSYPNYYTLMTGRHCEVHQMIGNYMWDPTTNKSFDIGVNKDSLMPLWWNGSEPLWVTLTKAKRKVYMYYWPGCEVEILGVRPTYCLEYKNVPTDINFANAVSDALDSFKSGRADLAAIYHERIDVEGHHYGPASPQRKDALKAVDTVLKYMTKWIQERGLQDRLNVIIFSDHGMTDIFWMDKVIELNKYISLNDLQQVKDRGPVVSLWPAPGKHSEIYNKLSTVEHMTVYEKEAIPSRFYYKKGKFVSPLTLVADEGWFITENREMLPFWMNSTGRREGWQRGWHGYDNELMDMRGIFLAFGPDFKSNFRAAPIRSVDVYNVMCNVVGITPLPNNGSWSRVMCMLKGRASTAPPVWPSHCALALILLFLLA
# Experiment: Inhibition of ENPP6 (unknown origin)
# Conditions: not given
row,SMILES,IC50 [µM]
1,Cc1nc2ncnn2c(NCCCCC(=O)O)c1Cc1cccc(N)c1,> 50
2,Cc1nc2ncnn2c(NCCO)c1Cc1ccccc1,> 50
3,Cc1nc2ncnn2c(N(C)C)c1Cc1cccc(N)c1,> 50
4,Cc1nc2ncnn2c(N(C)C)c1CC1CCCCC1,> 50
5,Cc1nc2ncnn2c(O)c1Cc1ccccc1,> 50
6,Cc1cccc(Cc2c(C)nc3ncnn3c2N(C)C)c1,> 50
7,Cc1nc2ncnn2c(N(C)C)c1CCc1ccccc1,> 50
8,COc1cccc(Cc2c(C)nc3ncnn3c2N(C)C)c1,> 50

# Tested on: not listed separately
# Experiment: Cytotoxicity against human HepG2-Dual cells upto 50 uM
# Assay type: toxicity, cell-based
# Conditions: hepg2, 50 µM
row,SMILES,Activity
1,Cc1nc2ncnn2c(N(C)C)c1Cc1cccc(N)c1,Non-Toxic

# Biological target: T5, Autotaxin (Homo sapiens, UniProt Q13822)
# Experiment: Inhibition of ENPP2 (unknown origin) at 50 uM relative to control
# Conditions: not given
row,SMILES,inhibition [%]
1,Cc1nc2ncnn2c(NCCCCC(=O)O)c1Cc1cccc(N)c1,27
2,Cc1nc2ncnn2c(NCCO)c1Cc1ccccc1,< 1
3,Cc1nc2ncnn2c(N(C)C)c1Cc1cccc(N)c1,11
4,Cc1nc2ncnn2c(N(C)C)c1CC1CCCCC1,< 1
5,Cc1nc2ncnn2c(O)c1Cc1ccccc1,< 1
6,Cc1cccc(Cc2c(C)nc3ncnn3c2N(C)C)c1,9.7
7,Cc1nc2ncnn2c(N(C)C)c1CCc1ccccc1,< 1
8,COc1cccc(Cc2c(C)nc3ncnn3c2N(C)C)c1,31

# Biological target: T5, Autotaxin
# Experiment: Inhibition of ENPP2 (unknown origin)
# Conditions: not given
row,SMILES,IC50 [µM]
1,Cc1nc2ncnn2c(NCCCCC(=O)O)c1Cc1cccc(N)c1,> 50
2,Cc1nc2ncnn2c(NCCO)c1Cc1ccccc1,> 50
3,Cc1nc2ncnn2c(N(C)C)c1Cc1cccc(N)c1,> 50
4,Cc1nc2ncnn2c(N(C)C)c1CC1CCCCC1,> 50
5,Cc1nc2ncnn2c(O)c1Cc1ccccc1,> 50
6,Cc1cccc(Cc2c(C)nc3ncnn3c2N(C)C)c1,> 50
7,Cc1nc2ncnn2c(N(C)C)c1CCc1ccccc1,> 50
8,COc1cccc(Cc2c(C)nc3ncnn3c2N(C)C)c1,> 50

# Biological target: T2, Ectonucleotide pyrophosphatase/phosphodiesterase family member 1
# Experiment: Inhibition of ENPP1 (unknown origin) assessed as reduction in ATP hydrolysis by AMP-Glo assay
# Conditions: not given
row,SMILES,IC50 [µM]
1,Cc1nc2ncnn2c(N(C)C)c1Cc1cccc(N)c1,0.85

# Biological target: T6, Glycerophosphocholine cholinephosphodiesterase ENPP6 (Homo sapiens) (UniProt Q6UWR7)
# T6 sequence (whole entry): T4 sequence (Q6UWR7 whole entry)
# Experiment: Inhibition of ENPP6 (unknown origin) at 50 uM relative to control
# Conditions: not given
row,SMILES,inhibition [%]
1,Cc1nc2ncnn2c(NCCCCC(=O)O)c1Cc1cccc(N)c1,3.5
2,Cc1nc2ncnn2c(NCCO)c1Cc1ccccc1,< 1
3,Cc1nc2ncnn2c(N(C)C)c1Cc1cccc(N)c1,< 1
4,Cc1nc2ncnn2c(N(C)C)c1CC1CCCCC1,< 1
5,Cc1nc2ncnn2c(O)c1Cc1ccccc1,< 1
6,Cc1cccc(Cc2c(C)nc3ncnn3c2N(C)C)c1,1.1
7,Cc1nc2ncnn2c(N(C)C)c1CCc1ccccc1,< 1
8,COc1cccc(Cc2c(C)nc3ncnn3c2N(C)C)c1,< 1

# Biological target: T2, Ectonucleotide pyrophosphatase/phosphodiesterase family member 1
# Experiment: Inhibition of ENPP1 (unknown origin) assessed as reduction in 2'3'-cGAMP hydrolysis by AMP-Glo assay
# Conditions: not given
row,SMILES,IC50 [µM]
1,Cc1nc2ncnn2c(N(C)C)c1Cc1cccc(N)c1,0.82
